Tested on: gray mold fungus (Botrytis cinerea)
Assay: cucumber leaf disk test, preventive value against gray mold
Assay type: in vivo
Conditions: 15° C., four days
Procedure: True leaf of cucumber is punched out with cork borer to 13 mm in diameter to prepare a leaf disk. In 24 well microwell plate that is dispensed with 1 ml 0.8% water agar, the leaf disk is placed such that the upper side of the leaf is in an upward direction. Thereto is added 20 micro liter a testing solution prepared by mixing a dimethyl sulfoxide solution of the present compound (racemate) and a dimethyl sulfoxide solution of iminoctadine trialbesilate to a predetermined concentration to treat the leaf disk.
After confirming that the testing medical solution is dried, conidium of gray mold fungus (Botrytis cinerea) is suspended into potato dextrose broth (DIFCO) in a density of about 10^5 conidium/mL and is then subjected to a spray inoculation. After leaving to stand the leaf disk in a growth chamber set up at 15° C. for four days, an onset area on the leaf is measured and then calculated an onset area rate (hereinafter, referred to as an onset area rate of treated group).
The same operation is carried out with 20 micro liter water instead of 20 micro liter a testing medicine solution to calculate an onset area rate (hereinafter, referred to an onset area rate of non-treated group).
A preventive value is calculated from the above onset area rate of treated group and the onset area rate of non-treated group by the following equation: Preventive value (%)=100×(A−B)/A
A: an onset area rate of treated group
B: an onset area rate of non-treated group
The same operations as described in Test Example 1 are carried out with iminoctadine triacetate instead of iminoctadine trialbesilate, so as to calculate a preventive value.
Also for comparison, the same operations as described in Test Example 1 are carried out with the exception that the testing medicine solution is substituted with a predetermined concentration of each dimethyl sulfoxide solution of the present compound (racemate) or iminoctadine triacetate, so as to calculate respective preventive values.
For comparison, the same operations as described in Test Example 1 are carried out with the exception that the testing medicine solution is substituted with a predetermined concentration of a dimethyl sulfoxide solution of iminoctadine triacetate, so as to calculate a preventive value.

Q: With CC(=O)O.CC(=O)O.CC(=O)O.NC(N)=NCCCCCCCCNCCCCCCCCN=C(N)N [iminoctadine triacetate] as the compound, how does the “preventive value (%)” value (Table 2, iminoctadine triacetate alone 0.5 ppm) read?
A: 20%

Q: What about the “preventive value (%)” value (Table 2, iminoctadine triacetate alone 5.0 ppm) of the same compound?
A: 53%

Q: What about the “preventive value (%)” value (Table 3 (Reference Example), iminoctadine triacetate alone 0.5 ppm) of the same compound?
A: 20%

Q: What about the “preventive value (%)” value (Table 3 (Reference Example), iminoctadine triacetate alone 5.0 ppm) of the same compound?
A: 56%

Reference: patent publication US8946298B2, “Plant disease controlling composition and method for controlling plant disease” (Sumitomo Chemical Company, Limited, priority 2010, dated 2015)
